In patent publication US12251383B2, “Methods and compositions for KRAS inhibitors” (The Board of Regents of the University of Texas System, priority 2019, dated 2025):

What was measured:
[1] = target: KRAS^G12C in the GTP state (Homo sapiens, UniProt P01116, G12C); test: MST binding, GTP-state KRAS G12C
Excerpt: FIGS. 1A-1D show representative data for the predicted binding mode and measured affinity of disclosed compound 11 to KRAS. (FIG. 1A) Structure of the catalytic domain of KRAS used for the virtual screening. Lobe1 (residues 1-86) and lobe2 (residues 87-166) are highlighted in different colors, as well as switches 1 (residues 30-40) and 2 (residues 60-75). The location of the target allosteric pocket p1 is indicated. (FIG. 1B) Chemical structure of compound 11. (FIG. 1C) Predicted binding pose of compound 11, with the key residues that make polar or vdW contacts with the ligand labeled. (FIG. 1D) Microscale thermophoresis (MST) experiments indicating direct binding of compound 11 to KRAS, along with dissociation constants (KD) derived from the curves. Changes in fluorescence upon titration of […] KRAS with increasing concentration of compound are shown: KRAS^WT (red), KRAS^G12C (green), KRAS^G12D (purple) and KRAS^Q61M (blue), each bound to the non-hydrolyzable GTP analogue, guanylyl imidodiphosphate (GNP). The same experiments indicated no binding to GDP-bound KRAS^G12D and KRAS^WT as well as Rap1B, which was used as control. […]

[2] = tested on: H1975 (KRAS^WT) lung cancer cells; test: Cell proliferation (CyQuant), H1975; type: cell-based; settings: 72 h
Procedure: (§1) Cell proliferation. Potential effect of the ligands on cancer cell proliferation was tested in three lung cancer cells: SKLU-1, H1975 and H522. Cells were plated at ˜1,000 cell per well in a 96-well plate and maintained in full serum media with or without compound at 37° C. for 72 h changing the media with the compound every 24 h. Media with compound was prepared by serial dilution at concentrations indicated. Then cells were washed with PBS and frozen at −80° C. for a minimum of 24 h. Plates were thawed and CyQuant™ dye (in lysis buffer provided in the CyQuant™ cell proliferation assay kit, Invitrogen™) was added, and after a five-minute incubation, fluorescence (excitation: 480 nm emission: 520 nm) was measured with a Tecan Infinite M200 plate reader.

lung cancer cells = test: Cell proliferation (CyQuant), lung cancer cells overall; type: cell-based
Excerpt: (FIG. 5A) Chemical structure of compounds 12, an analogue of 11 lacking the terminal methyl alcohol functional group. (FIG. 5B) Predicted binding pose of compound 12. (FIG. 5C) p-ERK and p-cRaf levels in BHK cells expressing KRAS^G12D treated with indicated concentrations of compound 12 or vehicle. (FIG. 5D) Proliferation profile of lung cancer cells upon treatment with increasing concentration of compound 12, monitored by a CyQuant assay. Data are averages over three independent experiments and error bars represent standard error. (FIG. 5E) GFP fluorescence lifetime from FLIM-FRET using cells expressing GFP-KRAS^G12D alone or together with RFP-cRaf, with or without treatment with 2 μM compound 12.
as §1

KRASWT = KRASWT (Homo sapiens, UniProt P01116); test: Nucleotide exchange assay (intrinsic and SOS-mediated); type: biochemical
Procedure: Nucleotide exchange and release assays. Loading of fluorescent-labeled GDP (BODIPY-GDP; BGDP from hereon) to KRAS was conducted following previous reports (23, 47), with minor modifications. Purified KRAS was buffer-exchanged in NAP-5 column (GE Life Sciences) in low Mg^2+ buffer (25 mM Tris pH 7.5, 50 mM NaCl, and 0.5 mM MgCl2). The eluate was incubated with 10-fold molar excess of BGDP (Life Technologies) in the presence of 5 mM EDTA and 1 mM DTT for 1.5 h at 20° C. in the dark. Then 10 mM MgCl2 was added and the solution was incubated for 30 min at 20° C. Free nucleotide was removed by gel filtration using a PD-10 column (GE Life Sciences) that had been equilibrated with the reaction buffer (25 mM Tris-HCL pH 7.5, 50 mM NaCl, 1 mM MgCl2, and 1 mM DTT). The concentration of ^BGDPKRAS was determined using Bradford assay and a BGDP standard curve. Then the effect of ligands on the intrinsic rate of nucleotide release was monitored using the decrease in fluorescence with time as BGDP dissociates from KRAS in a 100 μL reaction mixture (96-well plate) of 0.5 μM B^GDPKRAS, 100 μM GTP and varying concentrations of ligand (0 to 25 μM); GTP was added just before measurements. To measure the rate of SOS-mediated nucleotide release, 0.5 μM SOS (residues 564-1049, Cytoskeleton Inc) was added after adding GTP, and fluorescence was immediately read (excitation: 485 nm, emission: 510 nm) using Tecan Infinite M200 plate reader. Intrinsic and SOS-mediated nucleotide exchange rates were monitored with the fluorescence intensity increase of BGTP as it displaces GDP from KRAS. A 100 μL reaction mixture was used containing 0.5 μM each of ^GDPKRAS, BGTP (and SOS) plus varying concentrations of ligand (0 to 25 μM); BGTP was added just before measurements. Experiments were conducted with minimal light and the reaction was monitored for 2 h at room temperature. Fluorescence intensities were normalized at 120 s and the traces were fit with linear or single exponential functions (Igor Pro, Wavemetrics).
The effect of compound 11 on intrinsic and GEF-dependent nucleotide release and exchange reactions was determined. […] In particular, 11 decreased the intrinsic rate of nucleotide exchange by ˜10-fold at >10 μM (Fig S4, top-left), but it has no effect on intrinsic nucleotide release (Appendix I, Figure S4, bottom-left). […] Since GTP hydrolysis is unlikely to occur within the timescale of the experiments disclosed herein (2, 3), a plausible interpretation of the former would be compromised GTP loading. This is possible if, for example, the ligand binds to the nucleotide free ‘transition state’ conformation of KRAS and induces reorganization of active site residues. […]

KRAS = test: MST affinity for KRAS (G12D and other KRAS mutants); type: binding, human; settings: MST KD

KRASWT, sequence (P01116 1-188 isoform P01116-2): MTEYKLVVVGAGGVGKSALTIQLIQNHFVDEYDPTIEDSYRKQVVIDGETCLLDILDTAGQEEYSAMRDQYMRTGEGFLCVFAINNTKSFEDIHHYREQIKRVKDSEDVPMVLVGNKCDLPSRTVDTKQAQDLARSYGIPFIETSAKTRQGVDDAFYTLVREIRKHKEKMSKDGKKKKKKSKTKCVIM
KRAS^G12C in the GTP state, sequence (P01116 1-188 isoform P01116-2 G12C): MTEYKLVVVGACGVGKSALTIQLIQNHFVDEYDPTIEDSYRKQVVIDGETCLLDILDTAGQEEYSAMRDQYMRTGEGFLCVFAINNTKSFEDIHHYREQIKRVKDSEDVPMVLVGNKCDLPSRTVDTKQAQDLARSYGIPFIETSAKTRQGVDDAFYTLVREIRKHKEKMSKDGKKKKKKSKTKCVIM

Cc1nn2c(N3CCN(CCO)CC3)cc(-c3ccccc3)nc2c1-c1ccccc1 [Compound 11, 2-[4-(8-methyl-3,9-diphenyl-2,6,7-triazabicyclo[4.3.0]nona-2,4,7,9-tetraen-5-yl)piperazin-1-yl]ethanol]
Kd [1]: 400 to 700 nM
sensitivity of proliferation [2]: sensitive
selectivity between KRAS mutant and KRAS^WT lung cancer cells (lung cancer cells): no significant difference
effect on SOS-mediated nucleotide exchange rate (KRASWT; SOS-mediated): slightly reduced
decrease of rate of nucleotide exchange (KRASWT; SOS-mediated (Fig S4 top-right)): 1.1 fold
effect on intrinsic nucleotide exchange rate (KRASWT; intrinsic): slightly reduced
decrease of intrinsic rate of nucleotide exchange (KRASWT; intrinsic, at >10 μM): ~10 fold

Cc1cc(N2CCN(CCO)CC2)n2nc(C)c(-c3ccccc3)c2n1 [Compound 13]
weaker affinity for KRAS than compound 11 (KRAS): 6.5-7.1 fold
